Laboratory results taken from patent publication US4371465A, “Mammalian collagenase inhibitors” (American Home Products Corporation, priority 1981, dated 1983).

Test system: collagenase
Test: Collagenase inhibition (acetyl 14C collagen hydrolysis, procedure of Sellers et al.)
Format: biochemical
Details: 2 mM inhibitor; 35° C., 5 to 18 hours; Tris-CaCl2 pH 7.4; vs control devoid of inhibitor
Procedure: The inhibitory effect of the compounds of this invention toward collagenase was determined following the procedure of Sellers et al., Biochem J. 167 353-360 (1977) whereby the 2mM of the inhibitor being tested is incubated at 35° C. for from 5 to 18 hours (depending upon the potency of the collagenase) with collagen and collagenase (buffered with Tris®-CaCl2; pH 7.4). The collagen is acetyl ^14 C collagen. The samples are centrifuged and an aliquot removed for assay on a scintillation counter. Because native collagen forms insoluble fibrils under the test conditions, the supernatant liquid contains radioactivity as a measure of hydrolysis. The collagenase activity in the presence of 2mM inhibitor is compared to activity in a control devoid of inhibitor and the results reported as percent inhibition of collagenase activity. Each of the compounds of this invention have been established as active collagenase inhibitors by the test procedure.
The following example illustrates the preparation of a typical, representative compound of the invention. The precent inhibition of collagenase activity at the 2 mM polypeptide level in accordance with the previously described standard testing procedure is provided after the preparatory description is compared to D-penicillamine alone, the latter being a known collagenase inhibitor.

CC(C)(S)[C@@H](N)C(=O)O [D-penicillamine]
Percent inhibition collagenase: 39
